Values quoted from earlier work as cited in patent US6002023A, “2-debenzoyl-2-acyl taxol derivatives and method for making same” (Virginia Tech Intellectural Properties, Inc., priority 1997, dated 1999).

Conditions: in some assays; cited from earlier work

SMILES: CC(=O)O[C@@]12CO[C@@H]1C[C@H](O)[C@@]1(C)C(=O)[C@H](O)C3=C(C)[C@@H](OC(=O)[C@H](O)[C@@H](NC(=O)OC(C)(C)C)c4ccccc4)C[C@@](O)([C@@H](OC(=O)c4ccccc4)[C@H]21)C3(C)C [Taxotere]
- activity relative to taxol: approximately twice as active as taxol
